In PMC6690782 (Bioorganic & medicinal chemistry letters, 2019):

How the values were obtained:
[1] = cited from earlier work
LAT1 = LAT1 (Homo sapiens, UniProt Q01650); experiment: cis-inhibition assay: inhibition of [3H]-gabapentin uptake into HEK-hLAT1 cells; format: cell-based; conditions: for fold decrease in potency relative to corresponding histidine/tryptophan analog: cis-inhibition IC50, 7d vs 16, 13 vs 22
Sequence of LAT1 (Q01650 whole entry): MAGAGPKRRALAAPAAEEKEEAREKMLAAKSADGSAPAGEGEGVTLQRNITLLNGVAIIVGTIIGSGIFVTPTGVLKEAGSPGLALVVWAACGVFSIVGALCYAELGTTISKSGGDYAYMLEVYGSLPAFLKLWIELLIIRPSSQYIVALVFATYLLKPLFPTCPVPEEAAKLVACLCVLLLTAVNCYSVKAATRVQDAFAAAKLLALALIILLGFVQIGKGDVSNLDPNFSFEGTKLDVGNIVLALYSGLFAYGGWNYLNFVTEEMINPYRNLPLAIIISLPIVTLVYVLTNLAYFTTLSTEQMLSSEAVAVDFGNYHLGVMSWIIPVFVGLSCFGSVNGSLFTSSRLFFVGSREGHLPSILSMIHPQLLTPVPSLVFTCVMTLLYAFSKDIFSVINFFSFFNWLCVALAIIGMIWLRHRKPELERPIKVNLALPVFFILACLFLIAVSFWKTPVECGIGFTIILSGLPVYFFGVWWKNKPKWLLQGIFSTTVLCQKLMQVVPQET
Sequence of LAT1 (P08195 102-630 partner): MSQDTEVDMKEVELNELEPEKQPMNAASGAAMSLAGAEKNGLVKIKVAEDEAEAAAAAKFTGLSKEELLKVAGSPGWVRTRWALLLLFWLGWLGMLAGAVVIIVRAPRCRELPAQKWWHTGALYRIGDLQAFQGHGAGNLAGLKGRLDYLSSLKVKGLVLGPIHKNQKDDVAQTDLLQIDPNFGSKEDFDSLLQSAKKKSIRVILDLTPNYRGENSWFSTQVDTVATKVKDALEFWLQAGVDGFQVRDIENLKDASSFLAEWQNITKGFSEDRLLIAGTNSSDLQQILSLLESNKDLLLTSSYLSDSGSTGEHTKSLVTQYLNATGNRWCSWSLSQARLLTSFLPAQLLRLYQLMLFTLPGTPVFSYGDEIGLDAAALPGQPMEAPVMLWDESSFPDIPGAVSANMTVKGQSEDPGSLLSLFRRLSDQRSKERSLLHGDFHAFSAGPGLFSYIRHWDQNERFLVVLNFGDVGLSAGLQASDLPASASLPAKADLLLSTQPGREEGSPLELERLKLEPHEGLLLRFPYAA

c1c[nH]nn1 [1,2,3-triazole]
pKa of conjugate acid [1]: 1.15

N[C@@H](Cc1cn(Cc2ccccc2)nn1)C(=O)O [Compound 11e]
inhibition at 200 µM (LAT1): -19%

Cc1cn(C[C@H](N)C(=O)O)nn1 [Compound 7d]
fold decrease in potency relative to corresponding histidine/tryptophan analog (LAT1): 2 fold

N[C@@H](Cc1cn(Cc2ccccc2)cn1)C(=O)O [Compound 17, reference compound]
inhibition at 200 µM (LAT1): 74%

N[C@@H](Cn1nnc2ccccc21)C(=O)O [Compound 13]
fold decrease in potency relative to corresponding histidine/tryptophan analog (LAT1): 2 fold
